Results: US20080089947A1, “Calcium Influx Inhibitors in the Treatment of Ischemia” (priority 2006, published 2008)
Values after ≈ are worked out from the molar mass of the structure shown. “Also recorded” adds a separate entry of the source.

Assays:
[1] = cited from earlier work
[2] = test system: mitochondrial calcium uptake (mitochondrial calcium uniporter); assay: 45Ca2+ uptake in isolated liver mitochondria; format: biochemical, rat; settings: for EC50: isolated mitochondria, pyruvate and malate, read-out: EC50 of inhibition of mitochondrial calcium uptake
Experimental: Livers were isolated from male Sprague-Dawley rats (300 g). Rats were anesthetized with isoflurane and sacrificed by cervical dislocation. […] Briefly, the liver was minced and homogenized in liver homogenization buffer (LHB)(0.2 M mannitol, 50 mM sucrose, 10 mM KCl, and 1 mM Na2EDTA, pH=7.4, KOH). The homogenate was filtered through gauze and centrifuged 2 times for 10 min at 1,000× g. The supernatant was collected and centrifuged for 10 min at 3,000× g. The pellet was washed twice and resuspended in calcium-free LHB without EDTA to a concentration of 2 mg/mL. All steps were performed at 4° C.
A combination of metabolic substrates pyruvic acid and malic acid (final concentration 1 mM each) was used as a source of mitochondrial energy. Radioactive ^45Ca^2+ (NEN Life Sciences Products, Inc., Boston, Mass.) was added to the incubation buffer (final concentration range: 0.1-2.0 μM). The experiments were initiated by addition of mitochondria to the incubation buffer (final concentration 0.2 mg/ml). 2-APB (in DMSO) was added at concentrations from 0-100 μM to determine its effects on mitochondrial calcium uptake. Mitochondria were incubated in a 37° C. shaking water bath for 30 minutes, filtered, and washed. Accumulated mitochondrial ^45Ca^2+ was then measured using liquid scintillation counting in a Beckman LS6000IC beta counter. Mitochondria in incubation buffer without pyruvic acid and malic acid served as background controls. Ruthenium red (10 μM), a uniporter antagonist, was tested in all conditions to determine inhibitory capacity on observed mitochondrial calcium uptake, and to ensure that all observed calcium uptake was through the uniporter.
A combination of metabolic substrates pyruvic acid and malic acid was used as a source of mitochondrial energy. Radioactive ^45Ca^2+ was added to the incubation buffer (final concentration range: 0.1-2.0 μM). […] The calcium uptake experiments were initiated by addition of mitochondria to the incubation buffer (final concentration 0.2 mg/ml). Mitochondria were incubated in a 37° C. shaking water bath for 30 minutes, filtered, and washed, and calcium uptake quantified. Mitochondria in incubation buffer without pyruvic acid and malic acid served as background controls.

[3] = test system: mitochondrial calcium uptake; assay: 45Ca2+ uptake with ATP in mitochondria from non-ischemic and 24 h cold-stored livers; format: biochemical, rat
Experimental: Methods: Rat livers were perfused and stored using a previously reported technique (Belous et al., 2003). Briefly, an abdominal incision was made and the portal vein was cannulated with a 20-gauge cannula. The liver was then perfused with 30 ml 4° C. University of Wisconsin solution (UW). Half of the liver was processed for calcium uptake experiments immediately, while the other half was first stored for 24 hours in 4° C. UW solution (ischemic cold storage). Mitochondria were isolated from the liver as described in Example 1. Mitochondrial calcium uptake experiments were performed on isolated mitochondria from both the ischemic and non-ischemic portions of the liver as described in Example 1. In order to simulate the cellular conditions present during ischemia/reperfusion, 1 mM ATP was added to the incubation buffer. The selective, membrane-permeable PLC inhibitor, U-73122, was added to mitochondrial calcium uptake reaction tubes to a final concentration of 5 μM. This compound was tested on mitochondria isolated from both ischemic and non-ischemic livers to determine the effect of PLC inhibition on mitochondrial calcium uptake following ischemia/reperfusion. […] Ruthenium red (10 μM) was used to block the uniporter and ensure that all observed calcium uptake was ruthenium red-sensitive, and thus entering solely through the uniporter. To simulate reperfusion, mitochondria were incubated for 30 minutes in a 37° C. water bath with ATP present, after which the total mitochondrial calcium uptake was quantified as described in Example 1.

[4] = test system: liver ischemia/reperfusion injury; assay: 70% liver ischemia/reperfusion, ruthenium red pretreatment; format: in vivo, rat
Experimental: Thirty minutes prior to the initiation of liver ischemia, animals received ruthenium red (30 mg/kg in NaCl) or vehicle (0.9% NaCl) IV. Ischemia was carried out for one hour. The total anesthesia time for the animals was 90 minutes. Sham operated animals received laparotomy, mobilization of the liver, and underwent equivalent anesthesia. Following vascular clamp removal, animals were allowed to reperfuse for periods of 15 minutes, 1 hr, 3 hr, or 6 hr. At the time of animal sacrifice, serum was collected, and liver tissue was preserved for histological analysis. A total of 40 animals were used for this experiment. Ten animals were used for each time point: 4 ischemia/reperfusion, 4r ischemia/reperfusion with ruthenium red pretreatment, and 2 sham operated animals. […] All experimental measurements and data were obtained as detailed in Example 2.

[5] = test system: liver ischemia/reperfusion injury
Experimental: Methods: Following overnight fast, male Sprague-Dawley rats were placed under general anesthesia with isoflurane gas (3%, 2 L O2). Via a midline incision, a laparotomy was performed and the portal vein, hepatic artery, and bile duct were identified and dissected free from surrounding structures. […] Approximately 70% liver ischemia was created by using an atraumatic vessel clamp (S&T Microclamp B-3, Fine Science Tools, Foster City, Calif.) to occlude the portal vein and hepatic artery branches to the median and left liver lobes. […] The clamp was removed after 1 hour and the livers were given three hours to reperfuse with blood while the animals were conscious. Liver injury was assessed by serum levels of AST, ALT, LDH, which are three standard serum markers of acute ischemia/reperfusion injury to the liver. Histologic liver analysis using H&E staining and TUNEL assay, which identifies terminally damaged (apoptotic) cells, were used to look directly at cell damage in the collected livers.
Serum Transaminase Determinations: Serum collected from each animal at the time of euthanasia was analyzed for aspartate aminotransferase (AST), alanine aminotransferase (ALT), and lactic acid dehydrogenase (LDH) concentrations.
Assessment of apoptosis: In order to quantitate the rate of apoptosis in a sensitive manner, the inventors performed terminal deoxynucleotidyl transferase-mediated deoxyuridine triphosphate nick-end labeling (TUNEL) on paraffin embedded tissue sections from each animal. This assay was performed following the manufacturer's recommendations for a commercially available kit (ApopTag Plus Fluorescein In Situ Apoptosis Detection Kit, Chemicon International, Inc., Temecula, Calif.). Five randomly selected fields from each tissue section were examined at an original magnification of 200×. The number of positively staining cells per field was recorded. The average number of positively staining nuclei per field for each animal was used for analysis.
Quantitation of liver necrosis: Paraffin embedded tissue sections were stained with hematoxylin and eosin (H&E) and examined at an original magnification of 200×. Digital photomicrographs were made from five randomly selected fields of each tissue section. […] ImagePro software was used to create specific overlays of any region of necrosis in each of the photomicrographs. Using these overlays, percent area necrosis was calculated for each photomicrograph. The average percent area necrosis for each animal was then used for analysis.

[6] = test system: liver transplantation; settings: donor livers cold stored 24 hours in UW containing 2-APB
Experimental: In further experiments, full scale liver transplants were performed in rats. Livers were harvested from male Sprague-Dawly rats and cold stored for 24 hours in UW solution, or UW containing 2-APB. The livers were then removed from cold storage and transplanted into recipient rats. The operations were performed under general anesthesia, and the animals were followed after surgery for 2 days.

[7] = test system: hepG2 cells; settings: 100 μM in UW prior to cold storage, 6 hour ischemic
Experimental: To investigate the cellular mechanisms of 2-APB, an in vitro model using hepG2 cells transfected with GFP-tagged cytochrome c was used. […] Cells were grown at 37° C., 5% CO2 in MEM (ATCC, Manassas, Va.), with 10% fetal bovine serum, and 1% penicillin/streptomycin to 80% confluence. The media was replaced with UW solution and cells were incubated at 4° C. in hypoxic conditions for 6 hours. Hypoxia was achieved by placing the cells in an airtight incubator (Form a Scientifica, Marietta, Ohio), which was flushed with 5% CO2 and 95% N2 until the oxygen content in the container reached <0.1%, as verified using a dissolved O2 meter (Model 4000, VWR Scientific Products, Suwannee, Ga.). To render the storage solution hypoxic before experiments were carried out, UW was preincubated in the hypoxic chamber in an open sterile container for 8 h before experiments were carried out. […] Following 6 hours of hypothermic storage, the UW was replaced with warm, oxygenated media, and the cells were incubated at 37° C. Cytoplasmic extracts were harvested in lysis buffer (10 mM of KCl, 10 mM of HEPES, 1 mM of NaEDTA, 200 mM of Mannitol, 50 mM of sucrose) immediately following storage and after 60, 120, and 180 min of rewarming. HepG2 cytoplasmic extracts were harvested before exposure to storage conditions to serve as a control (untreated control). […]

[8] = test system: liver ischemia/reperfusion injury; remark: listed apart in the source
Experimental: 2-APB (2 mg/kg in DMSO), or vehicle (DMSO) was injected into the portal vein following 1 hour of ischemia, concurrent with removal of the vascular clamp. Animals were sacrificed after 3 hours of reperfusion (n=6 per group). Serum AST, ALT, and LDH levels were measured, and liver samples were evaluated histologically using H&E and TUNEL staining. To investigate the effect of 2-APB at the cellular level, an I/R model in HepG2 cells transfected with GFP-tagged cytochrome c was used. Statistical significance was assessed using Student t-test.

[9] = test system: PLC; settings: read-out: EC50 reported for PLC inhibition in intact cells; cited from earlier work
[10] = 30 mg/kg, 30 min before 1 h ischemia, 6 hours of reperfusion
[11] = 0.5-7.5 μM, 0.2 μM 45Ca2+, baseline 0.14% DMSO

## N.N.N.N.N.N.N.N.N.N.N.N.N.N.[Cl-].[Cl-].[Cl-].[Cl-].[Cl-].[Cl-].[O-2].[O-2].[Ru+3].[Ru+3].[Ru+4] [ruthenium red]
[1]
  solubility in water: soluble in water
[2]; 10 μM ruthenium red, 30 min, 37° C.
  mitochondrial calcium uptake: completely blocked
[3]; 10 μM ruthenium red, mitochondria from both ischemic and non-ischemic livers
  mitochondrial calcium uptake: prevented calcium uptake
[3]; 10 μM ruthenium red, mitochondria from both ischemic and non-ischemic livers, listed as Ruthenium red
  mitochondrial calcium uptake: completely blocked
[4]; [10]
  serum ALT: 294±39
  serum AST: 597±121
[4]; 3 and 6 hours of reperfusion
  liver necrosis: significantly decreased
[4]; 3 hours of reperfusion
  AST and ALT levels: trend for the animals pretreated with ruthenium red to have lower AST and ALT levels
  liver necrosis, percent area: 5%±2%
[4]; 6 hour reperfusion time point
  reduction in ALT levels: 4 fold
  reduction in AST levels: 2.5 fold
[4]; 6 hours of reperfusion
  liver necrosis, percent area: 3%±1%
[4]; all reperfusion time points (15 min, 1, 3, 6 hr)
  rate of apoptosis (TUNEL): significantly decreased
[4]; pretreatment of sham operated animals vs. vehicle alone
  AST or ALT levels in sham operated animals: did not alter

## Ru360
[1]
  solubility in water: soluble in water

## NCCOB(c1ccccc1)c1ccccc1 [2-APB, 2-aminoethoxydiphenyl borate]
[5]; 2 mg/kg in DMSO, portal vein, after sham operation
  liver damage by serum AST, ALT, LDH in sham-operated animals: neither 2-APB nor the vehicle, DMSO, were damaging to the liver
[5]; 2 mg/kg in DMSO, portal vein, before 1 h ischemia, 3 h reperfusion
  rise in serum AST, ALT and LDH: eliminated the rise in AST, ALT and LDH
[5]; 2 mg/kg portal vein before 1 h ischemia, 3 h reperfusion
  liver histology 400×: Cells are healthy and appear identical to the normal liver cells
[5]; 2 mg/kg portal vein before 1 h ischemia, 3 h reperfusion, H&E and TUNEL
  cells undergoing cell death: ≤ 2%
[1]
  solubility in DMSO: 20 mg/mL (≈ 88.8 mM)
  solubility in ethanol: 25 mg/mL (≈ 111 mM)
[2]; 30 min, 37° C.
  EC50: 2000 to 3000 nM
[2]; range of 1-100 μM 2-APB
  mitochondrial calcium influx: consistently and dose-dependently inhibited
[6]
  Mortality at 2 days: 0%
[7]
  release of GFP-tagged cytochrome c into the cytoplasm: prevented this release
[8]; 2 mg/kg in DMSO, portal vein at onset of reperfusion, 3 h reperfusion
  elevation of serum AST, ALT and LDH: significantly inhibited
[8]; 2-APB administered during reperfusion
  liver necrosis, H&E histology: little evidence of liver necrosis

## COc1ccc2c(c1)CC[C@@H]1[C@@H]2CC[C@]2(C)[C@@H](NCCCCCCN3C(=O)CCC3=O)CC[C@@H]12 [U-73343, 1-[6-((17β-3-Methoxyestra-1,3,5(10)-trien-17-yl)amino)hexyl]-2,5-pyrrolidinedione]
[2]; [11]
  mitochondrial calcium uptake: no effect; also recorded: did not significantly affect
[3]; 5 μM, mitochondria from ischemic livers (24 h 4° C. UW)
  mitochondrial calcium uptake: slight and insignificant decrease; also recorded: no effect
[3]; 5 μM, mitochondria from non-ischemic livers
  mitochondrial calcium uptake: slight but significant increase; also recorded: did not

## COc1ccc2c(c1)CCC1C2CCC2(C)C(NCCCCCCN3C(=O)C=CC3=O)CCC12 (stereo not drawn) [U-73122, 1-[6-((17β-3-Methoxyestra-1,3,5(10)-trien-17-yl)amino)hexyl]-1H-pyrrole-2,5-dione]
[1]
  solubility in DMSO: 1 mg/mL (≈ 2.15 mM)
  solubility in ethanol: 0.5 mg/mL (≈ 1.08 mM)
[2]; 5 μM or greater U-73122
  inhibition of mitochondrial calcium uptake: 90-100%
[2]; [11]
  mitochondrial calcium uptake: dose-dependently inhibited
[2]; 30 min, 37° C.
  EC50: 2000 to 3000 nM
[3]; 5 μM, mitochondria from ischemic livers (24 h 4° C. UW), vs. ATP and calcium alone
  decrease of mitochondrial calcium uptake: 85±2%
[3]; 5 μM, mitochondria from non-ischemic livers, vs. ATP and calcium alone
  decrease of mitochondrial calcium influx: 54±5%
[9]
  EC50: 1000 to 2100 nM
